Source: BindingDB's records for doi:10.7270/Q2639NCQ (The Scripps Research Institute Molecular Screening Center, 2013)

What follows are compounds tested against T1, Mitochondrial peptide methionine sulfoxide reductase (Bos taurus, UniProt P54149).
T1 sequence (P54149 whole entry): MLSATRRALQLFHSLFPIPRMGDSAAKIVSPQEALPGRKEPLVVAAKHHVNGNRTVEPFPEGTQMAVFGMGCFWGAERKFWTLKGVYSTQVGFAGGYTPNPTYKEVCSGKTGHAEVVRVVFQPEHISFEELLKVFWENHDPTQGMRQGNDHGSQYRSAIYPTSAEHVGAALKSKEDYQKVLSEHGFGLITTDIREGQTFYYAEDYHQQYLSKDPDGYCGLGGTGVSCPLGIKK

IC50, > 155 µM:
COc1ccccc1-c1[nH]nc2c1[C@H](C)CC[C@H]2C(C)C [(4R,7S)-3-(2-methoxyphenyl)-4-methyl-7-propan-2-yl-4,5,6,7-tetrahydro-1H-indazole], N#CCCSc1nc(N2CCOCC2)c2c(c1C#N)CCCC2 [3-(2-cyanoethylthio)-1-(4-morpholinyl)-5,6,7,8-tetrahydroisoquinoline-4-carbonitrile], Cc1cc(OCC(=O)N2CCc3ccccc3C2)c2c(-c3ccccc3)cc(=O)oc2c1 [5-[2-(3,4-dihydro-2(1H)-isoquinolinyl)-2-oxoethoxy]-7-methyl-4-phenyl-2H-chromen-2-one], CCc1nccn1C(=O)c1cnn2c(C(F)F)cc(-c3ccc(C)cc3)nc12 [7-(difluoromethyl)-3-[(2-ethyl-1H-imidazol-1-yl)carbonyl]-5-(4-methylphenyl)pyrazolo[1,5-a]pyrimidine], C#Cc1cccc(Nc2nc(NCCOC)nc3ccsc23)c1 [4-N-(3-ethynylphenyl)-2-N-(2-methoxyethyl)thieno[3,2-d]pyrimidine-2,4-diamine], [O-][N+]1=c2ccc(Nc3ccccc3)cc2=NC12CCCCC2 [1-oxido-N-phenyl-5-spiro[benzimidazol-1-ium-2,1'-cyclohexane]amine], CC(Nc1cc(N2CCOCC2)ccc1[N+](=O)[O-])c1ccccc1 (centres undefined) [MLS000573605], CNS(=O)(=O)c1cccc(C(=O)OCC(=O)c2cc3ccccc3o2)c1 [SMR000364126], Cc1ccc(Nc2[nH]nc(C)c2[N+](=O)[O-])c(C)c1 [MLS000700556], N#Cc1c(NCCCO)nc(-c2ccco2)c2c1CCCC2, Cc1ccccc1Nc1c(N)c(=O)oc2ccccc12 [MLS000563389], O=c1cnn(-c2ccccc2)c(-c2ccccc2)c1 [SMR000060054], c1ccc2c(c1)nc(N1CCOCC1)c1nnnn12 [4-(4-tetrazolo[1,5-a]quinoxalinyl)morpholine], Cc1c(OCC(N)=O)ccc2c(-c3ccccc3)cc(=O)oc12 [2-(8-methyl-2-oxidanylidene-4-phenyl-chromen-7-yl)oxyethanamide]
